Source: paper PMC4468608, “A distinct p53 target gene set predicts for response to the selective p53–HDM2 inhibitor NVP-CGM097” (eLife, 2015)

Tested on: cell lines from the Cancer Cell Line Encyclopedia (CCLE)
Experiment: High-throughput cell viability assay, CCLE cell line panel (n = 356)
Assay type: cell-based, human
Procedure: Cell lines were partitioned into sensitive and insensitive groups based on compound potency (IC50). […] All other cell lines were obtained from ATCC (American Type Culture Collection), DSMZ (Deutsche Sammlung von Mikroorganismen und Zellkulturen), and HSRRB (Health Science Research Resources Bank) and cultured in RPMI or Dulbecco's modified Eagle's medium plus 10% FBS (Invitrogen, Carlsbad, CA) at 37°C, 5% CO2.

[1] = cell line KMRC-1, kidney, TP53 WT
[2] = cell line KMS-27, haem._and_lymphoid_tissue, TP53 WT
[3] = cell line KMS-28BM, haem._and_lymphoid_tissue, TP53 WT
[4] = cell line KNS-42, central_nervous_system, TP53 MUT
[5] = cell line KYSE-410, oesophagus, TP53 MUT
[6] = cell line KYSE-450, oesophagus, TP53 MUT
[7] = cell line KYSE-510, oesophagus, TP53 MUT
[8] = cell line KYSE-520, oesophagus, TP53 MUT
[9] = cell line L-428, haem._and_lymphoid_tissue, TP53 MUT
[10] = cell line LN-229, central_nervous_system, TP53 WT
[11] = cell line MEL-HO, skin, TP53 WT
[12] = cell line MHH-ES-1, bone, TP53 MUT
[13] = cell line Malme-3M, skin, TP53 WT
[14] = cell line NCI-H460, lung, TP53 WT
[15] = cell line NCI-H647, lung, TP53 MUT
[16] = cell line NCI-H1299, lung, TP53 WT
[17] = cell line NCI-H1341, lung, TP53 WT
[18] = cell line NCI-H1650, lung, TP53 MUT
[19] = cell line NCI-H1693, lung, TP53 MUT
[20] = cell line NCI-H1703, lung, TP53 MUT
[21] = cell line OAW42, ovary, TP53 WT
[22] = cell line OE19, oesophagus, TP53 MUT
[23] = cell line OVCAR-8, ovary, TP53 MUT
[24] = cell line PE/CA-PJ41 (clone D2), upper_aerodigestive_tract, TP53 MUT
[25] = cell line PEER, haem._and_lymphoid_tissue, TP53 MUT
[26] = cell line SCaBER, urinary_tract, TP53 MUT
[27] = cell line SK-HEP-1, liver, TP53 WT
[28] = cell line SK-MEL-5, skin, TP53 WT
[29] = cell line SK-MEL-24, skin, TP53 WT
[30] = cell line SNG-M, endometrium, TP53 WT
[31] = cell line SNU-423, liver, TP53 MUT
[32] = cell line SW403, large_intestine, TP53 MUT
[33] = cell line SW 780, urinary_tract, TP53 WT
[34] = cell line SW 1573, lung, TP53 WT
[35] = cell line TE-9, oesophagus, TP53 MUT
[36] = cell line TE-11, oesophagus, TP53 MUT
[37] = cell line UM-UC-3, urinary_tract, TP53 MUT
[38] = cut-off IC50 4 µM, 356 cell lines

With `COc1cc2c(cc1OC(C)C)[C@H](c1ccc(Cl)cc1)N(c1ccc(N(C)C[C@H]3CC[C@H](N4CCNC(=O)C4)CC3)cc1)C(=O)C2` [NVP-CFC218] the “NVP- CFC218 sensitivity call” value (cell line JHOS-2, ovary, TP53 MUT) was “insensitive (Sensitivity call for each compound was applied according to a cut-off of 4 µM for IC50 and -50% for Amax)”, the “NVP- CFC218 Amax (%)” value [1] was -42.40% and the “NVP- CFC218 sensitivity call” value [1] was “insensitive (Sensitivity call for each compound was applied according to a cut-off of 4 µM for IC50 and -50% for Amax)”. The “NVP- CFC218 Amax (%)” value [2] was -1.14%, the “NVP- CFC218 sensitivity call” value [2] was “insensitive (Sensitivity call for each compound was applied according to a cut-off of 4 µM for IC50 and -50% for Amax)” and the “NVP- CFC218 Amax (%)” value [3] was 3.74%. The “NVP- CFC218 sensitivity call” value [3] was “insensitive (Sensitivity call for each compound was applied according to a cut-off of 4 µM for IC50 and -50% for Amax)”, the “NVP- CFC218 Amax (%)” value [4] was -8.48% and the “NVP- CFC218 sensitivity call” value [4] was “insensitive (Sensitivity call for each compound was applied according to a cut-off of 4 µM for IC50 and -50% for Amax)”. For the same compound, the “NVP- CFC218 Amax (%)” value [5] was -24.33%, the “NVP- CFC218 sensitivity call” value [5] was “insensitive (Sensitivity call for each compound was applied according to a cut-off of 4 µM for IC50 and -50% for Amax)” and the “NVP- CFC218 Amax (%)” value [6] was -1.37%. For the same compound, the “NVP- CFC218 sensitivity call” value [6] was “insensitive (Sensitivity call for each compound was applied according to a cut-off of 4 µM for IC50 and -50% for Amax)”, the “NVP- CFC218 Amax (%)” value [7] was 3.18% and the “NVP- CFC218 sensitivity call” value [7] was “insensitive (Sensitivity call for each compound was applied according to a cut-off of 4 µM for IC50 and -50% for Amax)”. For the same compound, the “NVP- CFC218 Amax (%)” value [8] was -5.52%, the “NVP- CFC218 sensitivity call” value [8] was “insensitive (Sensitivity call for each compound was applied according to a cut-off of 4 µM for IC50 and -50% for Amax)” and the “NVP- CFC218 Amax (%)” value [9] was -26.31%. The “NVP- CFC218 sensitivity call” value [9] was “insensitive (Sensitivity call for each compound was applied according to a cut-off of 4 µM for IC50 and -50% for Amax)”, the “NVP- CFC218 Amax (%)” value [10] was -42.01% and the “NVP- CFC218 sensitivity call” value [10] was “insensitive (Sensitivity call for each compound was applied according to a cut-off of 4 µM for IC50 and -50% for Amax)”. For the same compound, the “NVP- CFC218 Amax (%)” value [11] was -40.38%, the “NVP- CFC218 sensitivity call” value [11] was “insensitive (Sensitivity call for each compound was applied according to a cut-off of 4 µM for IC50 and -50% for Amax)” and the “NVP- CFC218 Amax (%)” value [12] was 1.25%. For the same compound, the “NVP- CFC218 sensitivity call” value [12] was “insensitive (Sensitivity call for each compound was applied according to a cut-off of 4 µM for IC50 and -50% for Amax)”, the “NVP- CFC218 Amax (%)” value [13] was -39.40% and the “NVP- CFC218 sensitivity call” value [13] was “insensitive (Sensitivity call for each compound was applied according to a cut-off of 4 µM for IC50 and -50% for Amax)”. For the same compound, the “NVP- CFC218 Amax (%)” value [14] was 0.31%, the “NVP- CFC218 sensitivity call” value [14] was “insensitive (Sensitivity call for each compound was applied according to a cut-off of 4 µM for IC50 and -50% for Amax)” and the “NVP- CFC218 Amax (%)” value [15] was -29.54%. The “NVP- CFC218 sensitivity call” value [15] was “insensitive (Sensitivity call for each compound was applied according to a cut-off of 4 µM for IC50 and -50% for Amax)”, the “NVP- CFC218 Amax (%)” value [16] was 0.83% and the “NVP- CFC218 sensitivity call” value [16] was “insensitive (Sensitivity call for each compound was applied according to a cut-off of 4 µM for IC50 and -50% for Amax)”. The “NVP- CFC218 Amax (%)” value [17] was -36.36%, the “NVP- CFC218 sensitivity call” value [17] was “insensitive (Sensitivity call for each compound was applied according to a cut-off of 4 µM for IC50 and -50% for Amax)” and the “NVP- CFC218 Amax (%)” value [18] was 2.72%. The “NVP- CFC218 sensitivity call” value [18] was “insensitive (Sensitivity call for each compound was applied according to a cut-off of 4 µM for IC50 and -50% for Amax)”, the “NVP- CFC218 Amax (%)” value [19] was -4.47% and the “NVP- CFC218 sensitivity call” value [19] was “insensitive (Sensitivity call for each compound was applied according to a cut-off of 4 µM for IC50 and -50% for Amax)”. For the same compound, the “NVP- CFC218 Amax (%)” value [20] was -40.27%, the “NVP- CFC218 sensitivity call” value [20] was “insensitive (Sensitivity call for each compound was applied according to a cut-off of 4 µM for IC50 and -50% for Amax)” and the “NVP- CFC218 Amax (%)” value [21] was -7.13%. The “NVP- CFC218 sensitivity call” value [21] was “insensitive (Sensitivity call for each compound was applied according to a cut-off of 4 µM for IC50 and -50% for Amax)”, the “NVP- CFC218 Amax (%)” value [22] was 14.48% and the “NVP- CFC218 sensitivity call” value [22] was “insensitive (Sensitivity call for each compound was applied according to a cut-off of 4 µM for IC50 and -50% for Amax)”. For the same compound, the “NVP- CFC218 Amax (%)” value [23] was -30.79%, the “NVP- CFC218 sensitivity call” value [23] was “insensitive (Sensitivity call for each compound was applied according to a cut-off of 4 µM for IC50 and -50% for Amax)” and the “NVP- CFC218 Amax (%)” value [24] was -0.29%. For the same compound, the “NVP- CFC218 sensitivity call” value [24] was “insensitive (Sensitivity call for each compound was applied according to a cut-off of 4 µM for IC50 and -50% for Amax)”, the “NVP- CFC218 Amax (%)” value [25] was -46.94% and the “NVP- CFC218 sensitivity call” value [25] was “insensitive (Sensitivity call for each compound was applied according to a cut-off of 4 µM for IC50 and -50% for Amax)”. For the same compound, the “NVP- CFC218 Amax (%)” value [26] was 0.88%, the “NVP- CFC218 sensitivity call” value [26] was “insensitive (Sensitivity call for each compound was applied according to a cut-off of 4 µM for IC50 and -50% for Amax)” and the “NVP- CFC218 Amax (%)” value [27] was -41.72%. For the same compound, the “NVP- CFC218 sensitivity call” value [27] was “insensitive (Sensitivity call for each compound was applied according to a cut-off of 4 µM for IC50 and -50% for Amax)”, the “NVP- CFC218 Amax (%)” value [28] was -47.83% and the “NVP- CFC218 sensitivity call” value [28] was “insensitive (Sensitivity call for each compound was applied according to a cut-off of 4 µM for IC50 and -50% for Amax)”. For the same compound, the “NVP- CFC218 Amax (%)” value [29] was -47.55%, the “NVP- CFC218 sensitivity call” value [29] was “insensitive (Sensitivity call for each compound was applied according to a cut-off of 4 µM for IC50 and -50% for Amax)” and the “NVP- CFC218 Amax (%)” value [30] was -25.75%. For the same compound, the “NVP- CFC218 sensitivity call” value [30] was “insensitive (Sensitivity call for each compound was applied according to a cut-off of 4 µM for IC50 and -50% for Amax)”, the “NVP- CFC218 Amax (%)” value [31] was -5.91% and the “NVP- CFC218 sensitivity call” value [31] was “insensitive (Sensitivity call for each compound was applied according to a cut-off of 4 µM for IC50 and -50% for Amax)”. The “NVP- CFC218 Amax (%)” value [32] was 51.39%, the “NVP- CFC218 sensitivity call” value [32] was “insensitive (Sensitivity call for each compound was applied according to a cut-off of 4 µM for IC50 and -50% for Amax)” and the “NVP- CFC218 Amax (%)” value [33] was -38.52%. For the same compound, the “NVP- CFC218 sensitivity call” value [33] was “insensitive (Sensitivity call for each compound was applied according to a cut-off of 4 µM for IC50 and -50% for Amax)”, the “NVP- CFC218 Amax (%)” value [34] was -48.52% and the “NVP- CFC218 sensitivity call” value [34] was “insensitive (Sensitivity call for each compound was applied according to a cut-off of 4 µM for IC50 and -50% for Amax)”. The “NVP- CFC218 Amax (%)” value (cell line Sq-1, lung, TP53 WT) was 4.40%, the “NVP- CFC218 sensitivity call” value (cell line Sq-1, lung, TP53 WT) was “insensitive (Sensitivity call for each compound was applied according to a cut-off of 4 µM for IC50 and -50% for Amax)” and the “NVP- CFC218 Amax (%)” value [35] was -6.46%. The “NVP- CFC218 sensitivity call” value [35] was “insensitive (Sensitivity call for each compound was applied according to a cut-off of 4 µM for IC50 and -50% for Amax)”, the “NVP- CFC218 Amax (%)” value [36] was -3.43% and the “NVP- CFC218 sensitivity call” value [36] was “insensitive (Sensitivity call for each compound was applied according to a cut-off of 4 µM for IC50 and -50% for Amax)”. For the same compound, the “NVP- CFC218 Amax (%)” value [37] was -27.23%, the “NVP- CFC218 sensitivity call” value [37] was “insensitive (Sensitivity call for each compound was applied according to a cut-off of 4 µM for IC50 and -50% for Amax)” and the “NVP- CFC218 Amax (%)” value (cell line WM-88, skin, TP53 WT) was -37.15%. The “NVP- CFC218 sensitivity call” value (cell line WM-88, skin, TP53 WT) was “insensitive (Sensitivity call for each compound was applied according to a cut-off of 4 µM for IC50 and -50% for Amax)”, the “Number of insensitive cell lines, p53MUT” value [38] was 252 and the “Number of insensitive cell lines, p53WT” value [38] was 57. For the same compound, the “Number of insensitive cell lines, total” value [38] was 309, the “Number of sensitive cell lines, p53MUT” value [38] was 4 and the “Number of sensitive cell lines, p53WT” value [38] was 43. The “baseline response rate without prior stratification” value (estimated from the NVP-CFC218 sensitivity data) was 19% and the “maximal compound effect level (Amax)” value (for the sensitive cell lines) was at most −50%.
